# Data from the supplement of paper PMC11451515.
# Test system: SEM cells
# Assay: cell viability relative to DMSO control; higher = less cytotoxic
# Conditions: 48 h
# Summary of the method: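 Leukemia cells (NOMO1 or SEM, 500 cells/well; P12-Ichikawa, 1000 cells/well) were seeded in 5 μl in 1536-well plates after at least four passages of adaptation to each medium. They received library compounds in DMSO by pin dosing, 11 threefold points from 47 μM to 0.79 nM. Luminescence with CellTiter-Glo One was read after 48 h at 37°C. Viability is stated per plate relative to DMSO wells, with cell-free wells as background.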
# [1] = HPLM + 10% dialyzed FBS, 0.000781 µM
# [2] = HPLM + 10% dialyzed FBS, 0.00234 µM
# [3] = HPLM + 10% dialyzed FBS, 0.00702 µM
# [4] = HPLM + 10% dialyzed FBS, 0.0211 µM
# [5] = HPLM + 10% dialyzed FBS, 0.0632 µM
# [6] = HPLM + 10% dialyzed FBS, 0.19 µM
# [7] = HPLM + 10% dialyzed FBS, 0.569 µM
# [8] = HPLM + 10% dialyzed FBS, 1.71 µM
# [9] = HPLM + 10% dialyzed FBS, 5.12 µM
# [10] = HPLM + 10% dialyzed FBS, 15.4 µM
# [11] = HPLM + 10% dialyzed FBS, 46.1 µM
# [12] = RPMI 5 mM glucose + 10% FBS, 0.000781 µM
# [13] = RPMI 5 mM glucose + 10% FBS, 0.00234 µM
# [14] = RPMI 5 mM glucose + 10% FBS, 0.00702 µM
# [15] = RPMI 5 mM glucose + 10% FBS, 0.0211 µM
# [16] = RPMI 5 mM glucose + 10% FBS, 0.0632 µM
# [17] = RPMI 5 mM glucose + 10% FBS, 0.19 µM
# [18] = RPMI 5 mM glucose + 10% FBS, 0.569 µM
# [19] = RPMI 5 mM glucose + 10% FBS, 1.71 µM
# [20] = RPMI 5 mM glucose + 10% FBS, 5.12 µM
# [21] = RPMI 5 mM glucose + 10% FBS, 15.4 µM
# [22] = RPMI 5 mM glucose + 10% FBS, 46.1 µM
# [23] = RPMI 5 mM glucose + 10% dialyzed FBS, 0.000781 µM
# [24] = RPMI 5 mM glucose + 10% dialyzed FBS, 0.00234 µM
# [25] = RPMI 5 mM glucose + 10% dialyzed FBS, 0.00702 µM
# [26] = RPMI 5 mM glucose + 10% dialyzed FBS, 0.0211 µM
# [27] = RPMI 5 mM glucose + 10% dialyzed FBS, 0.0632 µM
# [28] = RPMI 5 mM glucose + 10% dialyzed FBS, 0.19 µM
# [29] = RPMI 5 mM glucose + 10% dialyzed FBS, 0.569 µM
# [30] = RPMI 5 mM glucose + 10% dialyzed FBS, 1.71 µM
# [31] = RPMI 5 mM glucose + 10% dialyzed FBS, 5.12 µM
# [32] = RPMI 5 mM glucose + 10% dialyzed FBS, 15.4 µM
# [33] = RPMI 5 mM glucose + 10% dialyzed FBS, 46.1 µM
Structure (SMILES),cell viability [1] [%],cell viability [2] [%],cell viability [3] [%],cell viability [4] [%],cell viability [5] [%],cell viability [6] [%],cell viability [7] [%],cell viability [8] [%],cell viability [9] [%],cell viability [10] [%],cell viability [11] [%],cell viability [12] [%],cell viability [13] [%],cell viability [14] [%],cell viability [15] [%],cell viability [16] [%],cell viability [17] [%],cell viability [18] [%],cell viability [19] [%],cell viability [20] [%],cell viability [21] [%],cell viability [22] [%],cell viability [23] [%],cell viability [24] [%],cell viability [25] [%],cell viability [26] [%],cell viability [27] [%],cell viability [28] [%],cell viability [29] [%],cell viability [30] [%],cell viability [31] [%],cell viability [32] [%],cell viability [33] [%]
COc1cc2nc(N3CCN(C(=O)c4ccco4)CC3)nc(N)c2cc1OC,54.4,61.9,81.8,86.4,89.7,85.8,73,91.9,87,16.4,13.6,76.2,78.4,90.6,80.6,104,96.2,98.4,101,105,13.5,8.2,78.2,88.3,93.8,104,109,81.2,91,91.4,80.2,14,11.9
COC(=O)Nc1nc2cc(Sc3ccccc3)ccc2[nH]1,107,108,119,115,124,130,100,102,22.6,24.1,24.2,119,121,131,129,113,114,93.2,91.6,15.3,18.6,18.2,–,–,–,–,–,–,–,–,–,–,–
COc1cc([C@@H]2c3cc4c(cc3[C@@H](O[C@@H]3O[C@@H]5CO[C@@H](C)O[C@H]5[C@H](O)[C@H]3O)[C@H]3COC(=O)[C@H]23)OCO4)cc(OC)c1O,82.6,71.6,81.1,74.9,50.7,52.7,49.2,16.1,8.68,3.97,2.91,99.8,96.1,91.8,70.1,46.4,59.6,45.1,10.9,10.3,3.77,3.27,70.3,76,76.1,64.1,37,35.8,34.8,8.52,5.58,3.22,2.28
CC(=O)[C@H]1CC[C@H]2[C@@H]3C/C=C4/C[C@@H](O)CC[C@]4(C)[C@H]3CC[C@]12C,100,91.7,96.8,103,113,115,114,106,113,114,115,113,116,126,117,124,116,126,121,123,118,119,–,–,–,–,–,–,–,–,–,–,–
CCCCc1oc2ccccc2c1C(=O)c1cc(I)c(OCCN(CC)CC)c(I)c1,–,–,–,–,–,–,–,–,–,–,–,108,116,132,136,115,113,136,116,119,107,97.6,–,–,–,–,–,–,–,–,–,–,–
CC1CCN(c2cc(N3CCN(C)CC3)ccc2NC(=O)c2cc(C#N)c[nH]2)CC1,122,119,120,129,129,121,124,118,112,102,93.6,119,124,136,137,123,123,133,129,92.9,102,83.5,–,–,–,–,–,–,–,–,–,–,–
COc1cc([S+](C)(=O)[O-])ccc1Nc1nc2ccc(-c3ccc(NC(=O)[C@H](C)c4ccc(F)cc4)cc3)cn2n1,90.4,87.8,102,89.2,107,102,94.8,41.9,52.1,52.3,43.1,98,117,92.3,86.1,124,108,104,41.2,41.4,34.6,31,88.4,112,108,90.4,136,99.1,98.1,53.9,50,48.2,43
CNC(=O)c1cc(COc2nnc(Nc3ccc(Cl)cc3)c3ccoc23)ccn1,108,112,102,110,121,97.9,96,108,102,79.9,61.2,124,124,110,124,117,127,128,129,97.1,95,64.7,96.6,108,90.4,99,95.4,104,102,86.1,88.4,70.4,47.9
NC(=O)Cc1cccc(C(=O)c2ccccc2)c1N,73,99.4,96.9,39.7,113,115,109,99.6,96,101,104,95.7,38.4,90.7,33.4,101,95.2,95,107,95.5,88.8,85.1,44.3,78.3,101,43.1,97.4,107,103,112,95.4,105,85.2
